Data from PMC8321095, “Species-Specific Effects of Cation Channel TRPM4 Small-Molecule Inhibitors” (Frontiers in Pharmacology, 2021).

How the values were obtained:
Assay type in all cases: cell-based
[1] = biological target: T1, human TRPM4 (Homo sapiens, UniProt Q8TD43); experiment: Inside-out patch clamp on TsA-201 cells stably expressing human TRPM4; conditions: 300 μM calcium, +100 mV
T1 construct: expressed in transfected cells
Protocol: (§1) They were kept at 37°C with 5% CO2 in a humidified atmosphere incubator.
Electrophysiological recordings were performed in the inside-out patch-clamp configuration with patch pipettes (1 and 2 μm tip opening) pulled from 1.5 mm borosilicate glass capillaries (Zeitz-Instruments GmbH, München, Germany) using micropipette puller P 97 (Sutter Instruments, Novato, CA, United States). The tips were polished to have a pipette resistance of 2–4 MΩ in the bath solution. The pipette solution contained (in mM) 150 NaCl, 10 HEPES, and 2 CaCl2 (pH 7.4 with NaOH). The bath solution contained (in mM) 150 NaCl, 10 HEPES, 2 HEDTA (pH 7.4 with NaOH), and no Ca^2+. […] The I-V relationships (IV curves) have been determined using an I-V protocol from −100 mV to +100 mV for 500 ms with a difference of 20 mV between each sweep (cf. Figure 6). […]
Electrophysiology data were analysed using IGOR PRO 6 (WaveMetrics, Lake Oswego, United States), Normalized current percentage inhibition was calculated as follows ([activated current at 300 μM calcium]—[activated current at 300 μM calcium with compound]) * 100/[activated current at 300 µM calcium]. […] Data are presented as mean ± SEM except for Figures 3 and 7, where the data have been normalised to 100 for the current recorded in the presence of 300 µM calcium only. […]

[2] = biological target: T2, mouse TRPM4 (Mus musculus, UniProt Q7TN37); experiment: Inside-out patch clamp on TsA-201 cells stably expressing mouse TRPM4; conditions: for effect of CBA- and NBA-derived compounds on mouse TRPM4 current: 10 μM, applied intracellularly, n ≥ 6
T2 construct: expressed in transfected cells
T2 sequence (Q7TN37 whole entry): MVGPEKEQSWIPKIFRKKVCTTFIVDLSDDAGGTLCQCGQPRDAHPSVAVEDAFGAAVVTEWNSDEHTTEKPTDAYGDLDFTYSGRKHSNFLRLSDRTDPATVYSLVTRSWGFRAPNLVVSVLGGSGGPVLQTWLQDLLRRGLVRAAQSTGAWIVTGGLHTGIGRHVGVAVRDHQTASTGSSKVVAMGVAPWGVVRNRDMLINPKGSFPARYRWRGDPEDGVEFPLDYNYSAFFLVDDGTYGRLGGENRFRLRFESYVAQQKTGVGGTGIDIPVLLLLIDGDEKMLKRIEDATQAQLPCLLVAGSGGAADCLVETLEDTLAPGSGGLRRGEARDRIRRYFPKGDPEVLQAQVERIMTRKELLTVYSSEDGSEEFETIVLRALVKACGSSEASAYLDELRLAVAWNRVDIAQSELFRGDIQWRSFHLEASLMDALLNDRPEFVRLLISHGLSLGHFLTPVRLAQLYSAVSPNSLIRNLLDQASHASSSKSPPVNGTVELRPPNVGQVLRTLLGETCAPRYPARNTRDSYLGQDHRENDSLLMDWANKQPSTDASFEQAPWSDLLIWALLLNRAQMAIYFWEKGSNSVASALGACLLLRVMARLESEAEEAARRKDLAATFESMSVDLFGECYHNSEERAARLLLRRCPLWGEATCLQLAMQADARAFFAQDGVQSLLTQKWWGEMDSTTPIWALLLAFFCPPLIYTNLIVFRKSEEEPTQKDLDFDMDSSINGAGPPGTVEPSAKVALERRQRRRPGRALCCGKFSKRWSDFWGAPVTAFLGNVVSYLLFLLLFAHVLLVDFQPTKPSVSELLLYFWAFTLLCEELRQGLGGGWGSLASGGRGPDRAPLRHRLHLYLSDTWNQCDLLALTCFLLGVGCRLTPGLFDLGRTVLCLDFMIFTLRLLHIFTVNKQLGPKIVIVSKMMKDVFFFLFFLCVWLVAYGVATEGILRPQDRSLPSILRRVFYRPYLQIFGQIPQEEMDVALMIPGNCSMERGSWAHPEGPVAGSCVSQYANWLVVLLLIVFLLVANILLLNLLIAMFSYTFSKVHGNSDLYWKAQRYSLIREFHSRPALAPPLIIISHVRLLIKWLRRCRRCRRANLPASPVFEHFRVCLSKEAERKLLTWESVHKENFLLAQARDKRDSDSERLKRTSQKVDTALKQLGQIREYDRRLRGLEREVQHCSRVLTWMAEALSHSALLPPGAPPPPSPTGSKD
Protocol: as §1
Electrophysiological recordings were performed in the inside-out patch-clamp configuration with patch pipettes (1 and 2 μm tip opening) pulled from 1.5 mm borosilicate glass capillaries (Zeitz-Instruments GmbH, München, Germany) using micropipette puller P 97 (Sutter Instruments, Novato, CA, United States). The tips were polished to have a pipette resistance of 2–4 MΩ in the bath solution. The pipette solution contained (in mM) 150 NaCl, 10 HEPES, and 2 CaCl2 (pH 7.4 with NaOH). The bath solution contained (in mM) 150 NaCl, 10 HEPES, 2 HEDTA (pH 7.4 with NaOH), and no Ca^2+. […] Bath solution with 0 and 300 μM Ca^2+ concentrations were applied to cells by a modified rapid solution exchanger (Perfusion Fast-Step SF-77B; Warner Instruments Corp. CT, United States). […] Data were low-pass filtered at 5 kHz and sampled at 10 kHz. Experiments were performed at room temperature (20–25°C). The holding potential was 0 mV. For measuring steady-state currents, the stimulation protocol consisted of two sweeps with a total duration of 1,000 ms, the first sweep at −100 mV for 500 ms and the second at +100 mV for 500 ms (Figure 2). […] The I-V relationships (IV curves) have been determined using an I-V protocol from −100 mV to +100 mV for 500 ms with a difference of 20 mV between each sweep (cf. Figure 6). The IV curves have been normalised to the maximum current. No fit was applied.
After obtaining inside-out membrane patches, the presence of TRPM4 in the patch membrane was confirmed by switching the perfusion solution without calcium at the intracellular side of the membrane to a solution containing 300 μM calcium, which activates TRPM4 and triggers the current. Once the TRPM4 currents were activated and stabilised for intracellular compound application, the perfusion solution containing 300 μM calcium and either the compound or free adenosine triphosphate (ATP) was applied. For extracellular application, the compounds were added to the […] (pipette) solution.
Electrophysiology data were analysed using IGOR PRO 6 (WaveMetrics, Lake Oswego, United States), Normalized current percentage inhibition was calculated as follows ([activated current at 300 μM calcium]—[activated current at 300 μM calcium with compound]) * 100/[activated current at 300 µM calcium]. Concentration-response curves were fitted using the Hill equation fit parameter of IGOR (NC = NCmax [Cmpd]nH/([Cmpd]nH + EC50 nH)) where NC is normalized current [Cmpd] is compound concentration and nH is the Hill coefficient. Data are presented as mean ± SEM except for Figures 3 and 7, where the data have been normalised to 100 for the current recorded in the presence of 300 µM calcium only. Statistically significant differences conditions were determined using a non-parametric test with a Mann-Whitney post-test.

[3] = test system: TsA-201 cells; experiment: Cytotoxicity test (trypan blue cell counting); conditions: Homo sapiens, tsA201, 24 h, read-out: EC50, concentration of the inhibitor required to induce 50% of cell death
Protocol: Untransfected TsA-201 cells were seeded in a 96-wells plate at a concentration of 10,000 cells per well with DMEM and incubated at 37°C and 5% CO2 in a humidified atmosphere incubator overnight. […] After incubation, the cells were washed and incubated in 0.01% trypsin-EDTA until the cellular layer was completely detached. Cells were centrifuged down, and the pellet resuspended in 1 ml PBS. Cells were then diluted in 1 part of 0.4% trypan blue and 1-part cell suspension. This mixture was incubated for 3 min at room temperature. Finally, the unstained (viable) and stained (nonviable) cells were counted in the haemocytometer (BRAND® counting chamber BLAUBRAND®, Wertheim, Germany).

[4] = bath solution, 300 μM calcium, +100 mV

T1 sequence (Q8TD43 whole entry): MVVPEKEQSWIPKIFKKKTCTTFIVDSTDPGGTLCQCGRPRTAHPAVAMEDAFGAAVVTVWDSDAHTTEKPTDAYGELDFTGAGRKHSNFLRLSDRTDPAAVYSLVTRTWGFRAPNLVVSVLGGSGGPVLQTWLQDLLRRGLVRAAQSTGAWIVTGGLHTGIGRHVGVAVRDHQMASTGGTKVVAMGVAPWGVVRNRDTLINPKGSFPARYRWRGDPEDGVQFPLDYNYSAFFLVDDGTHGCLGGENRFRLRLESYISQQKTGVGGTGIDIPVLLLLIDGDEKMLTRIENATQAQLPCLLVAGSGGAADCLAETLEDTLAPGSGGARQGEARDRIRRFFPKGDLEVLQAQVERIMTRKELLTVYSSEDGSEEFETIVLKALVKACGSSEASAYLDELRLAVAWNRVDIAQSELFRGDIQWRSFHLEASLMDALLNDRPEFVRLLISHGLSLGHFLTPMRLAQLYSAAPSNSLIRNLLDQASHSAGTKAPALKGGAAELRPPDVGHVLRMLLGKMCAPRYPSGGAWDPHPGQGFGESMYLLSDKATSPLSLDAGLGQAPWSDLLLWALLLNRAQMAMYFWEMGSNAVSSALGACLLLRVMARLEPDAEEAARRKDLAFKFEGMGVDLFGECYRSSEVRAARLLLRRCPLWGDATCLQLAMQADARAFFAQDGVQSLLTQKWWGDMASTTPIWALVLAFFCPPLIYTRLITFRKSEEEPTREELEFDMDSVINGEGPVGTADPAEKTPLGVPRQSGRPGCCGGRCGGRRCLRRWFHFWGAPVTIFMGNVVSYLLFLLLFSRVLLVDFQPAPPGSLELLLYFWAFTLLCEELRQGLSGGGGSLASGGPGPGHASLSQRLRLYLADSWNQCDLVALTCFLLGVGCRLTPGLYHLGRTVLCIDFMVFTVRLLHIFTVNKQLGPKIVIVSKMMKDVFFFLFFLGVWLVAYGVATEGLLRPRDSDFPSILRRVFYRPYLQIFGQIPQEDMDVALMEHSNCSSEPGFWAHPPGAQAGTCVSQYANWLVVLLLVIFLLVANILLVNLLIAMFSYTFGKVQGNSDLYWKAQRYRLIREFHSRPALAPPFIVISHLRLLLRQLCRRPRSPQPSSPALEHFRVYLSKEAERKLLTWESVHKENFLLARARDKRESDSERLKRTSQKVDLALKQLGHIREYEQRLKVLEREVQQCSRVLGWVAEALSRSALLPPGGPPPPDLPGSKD

Nc1ncnc2c1ncn2[C@@H]1O[C@H](COP(=O)(O)OP(=O)(O)OP(=O)(O)O)[C@@H](O)[C@H]1O [ATP, adenosine triphosphate]
IC50 ([1]; inside-out patch, bath solution, Hill fit, n = 6, read-out: IC50 on human TRPM4 current, intracellular application): 800 nM
IC50 ([2]; inside-out patch, bath solution, 300 μM calcium, +100 mV, Hill fit, n = 6, read-out: IC50 on mouse TRPM4 current, intracellular application): 1400 nM

O=C(COc1cccc2c1CCCC2)Nc1cc(Cl)ccc1C(=O)O [NBA-d2, 4-chloro-2-(2-((5,6,7,8-tetrahydronaphthalen-1-yl)oxy)acetamido) benzoic acid]
effect of CBA- and NBA-derived compounds on mouse TRPM4 current [2, 4]: could inhibit mouse TRPM4 currents

O=C(COc1ccc(Cl)c2ccccc12)Nc1cc(Cl)ccc1C(=O)O [NBA-d1, 4-chloro-2-(2-((4-chloronaphthalen-1-yl)oxy)acetamido) benzoic acid]
effect of CBA- and NBA-derived compounds on mouse TRPM4 current [2, 4]: could inhibit mouse TRPM4 currents

Oc1cc2ccccc2c2ccccc12 [9-phenanthrol]
EC50 [3]: ~20000 nM
effect on human TRPM4 sodium current ([1]; 30 μM, extracellular or intracellular application): inhibited human TRPM4 sodium current with a similar efficacy independently of the application side
concentration dependence of potentiation of mouse TRPM4 current ([2]; 0.1 μM versus 100 μM, intracellular application, n = 6): more pronounced with low concentrations
effect on mouse TRPM4 current, intracellular application ([2]; 30 μM in bath solution, 300 μM calcium, +100 mV): increased the current
effect on mouse TRPM4 current, extracellular application ([2]; 30 μM in pipette solution, 300 μM calcium, +100 mV): decreased the mouse TRPM4 current
calcium dependence of the increase of mouse TRPM4 current ([2]; 30 μM, intracellular application, with or without 300 μM calcium): observed only in the presence of 300 μM calcium

Cc1cc(Cl)ccc1OC(C)C(=O)Nc1cc(Cl)ccc1C(=O)O (centres unmarked) [CBA-d1]
effect of CBA- and NBA-derived compounds on mouse TRPM4 current [2, 4]: did not decrease the mouse TRPM4 currents
